Patent US20170296621A1, “NOD2-DEPENDENT PATHWAY OF CYTOPROTECTION OF STEM CELLS” (INSTITUT PASTEUR, priority 2012, published 2017)
Structures can show the parent of a compound that is named as a salt.

Assays:
[1] = system: intestinal stem cells in crypts; test: Organoid formation under induced stress (doxorubicin or H2O2); assay type: cell-based, mice; conditions: 1 μM; after 4 days of treatment
Procedure: By definition, the fold change of the untreated organoids is set to 1 in the absence of any additional stress, and the fold changes upon the various stimulation or stress conditions applied are by reference to the non-stimulated non-stressed organoids.
Doxorubicin (1 μM) or H2O2 (200 μM) are added during the embedding of the crypts in the matrigel.
Intestinal crypts were obtained following a protocol already described (Sato et al., 2009). After isolation small intestines were isolated, flushed with cold PBS followed by 0.3% bleach and again PBS, opened longitudinally and the villi were removed. The tissues were cutted in small pieces, washed in 5 mM PBS/EDTA for 5 min, and subsequently incubated in fresh 5 mM PBS/EDTA for 30 min on ice. After severals vigourous shakings the crypts, released in the supernatant, were passed through a cell strainer 70 μm (BD Falcon), spun down at 800 rpm, resuspended in DMEM and counted. The volume corresponding to 500 crypts was distributed in two tubes per condition, and spun down again. […] The crypts were embedded in 50 μl of growth factor reduced matrigel (BD Biosciences) in a 24-well plates, incubate at 37° C. 20 min and overload with 500 μl of crypts medium (CM) as described previously (Sato et al 2009). […]

intestinal crypts [2] = test: Caspase-3 positive crypts in doxorubicin-treated mice; assay type: in vivo; conditions: intraperitoneal, 6 hours
Procedure: FIG. 11 depicts the percentage of caspase-3 positive crypts in different conditions. The results are obtained after 6 hours.
Line 1: WT, non-treated mice. Line 2: Nod2 KO mice, non-treated. Line 3: WT mice, treated with doxorubicin during 6 hours. Line 4: Nod2 KO mice, treated with doxorubicin during 6 hours. It can be observed that the absence of Nod2 induced more death in the crypts.
B6.129P2-Lgr5^tm1(cre/ESR1)Cle/mice (Lgr5-EGFP) (Barker et al., 2007) were purchased from The Jackson Laboratories. Card4/Nod1 (Nod1 KO) mice were generated by Millenium pharmaceuticals Boston. Card15/Nod2 deficient C57BL/6J (Nod2 KO) (Barreau et al., 2007) were provided by J.-P. Hugot (Hôpital Robert Debré, Paris, France). All mice were kept in specific pathogen-free conditions. When indicated the mice were injected intraperitoneally with 200 μg of EdU (Invitrogen) 2 hrs prior to sacrifice or with 10 mg/kg doxorubicin hydrochloride (Sigma) and sacrificed at indicated time points. […]
Doxorubicin in vivo. […] The percentage of crypts presenting at least one caspase3-positve cell was counted. […] To evaluate if upon doxorubicin treatment the proliferation index was affected, the number of EdU positive cells per crypts was counted and the percentage versus the total number of cells in the crypts was calculated.

intestinal crypts [3] = test: Proliferation index and regenerative crypts after doxorubicin injection; assay type: in vivo, mice; conditions: for Percentage of regenerative crypts / Relative size of crypts: 72 h after injection; for Relative size of crypts: crypt width×crypt height
Procedure: FIG. 13 illustrates the percentage of EdU-positive cells per crypt, in wild-type or Nod2 KO mice, after 2 hours of EdU (5-ethynyl-2-deoxyuridine) treatment.
For the analysis of proliferation in the tissue, 10 mg/kg EdU were injected IP and the animals were sacrificed after 2 h. The Click-iT® EdU Alexa Fluor® 488 Imaging Kit was used on paraffin slides that were processed according to the manufacturer's instructions.
The proliferation index was calculated as a percentage of EdU positive cells over the total number of cells in each crypt. Data from five mice each group were obtained and at least 50 crypts per section were examined for all histological parameters. A regenerative crypt was defined as a crypt containing more than 10 EdU positive cells per crypt. Relative crypt size was determined as crypt width×crypt height.
In order to evaluate the capacity of stem cells to survive and repair the damaged tissue upon doxorubicin-treatment, the inventors used a modified clonogenic microcolony assay (Tustison et al). At 72 h wt mice presented higher percentage of regenerative/surviving crypts than in Nod2 KO mice and this was associated with a bigger size of the crypts (Table 1).

crypts from Nod1 KO mice = test: Organoid formation from crypts of Nod1 KO mice upon MAMP stimulation; assay type: cell-based
Source text: FIG. 4 illustrates the fold change in number of organoids, formed from extracted crypts, from mice knocked out for Nod1 or Nod2 genes, upon different MAMPs stimulation conditions. By definition, the fold change of the untreated organoids is set to 1, and the fold changes upon the various stimulation conditions applied are by reference to the non-stimulated organoids.
Intestinal crypts were obtained following a protocol already described (Sato et al., 2009). After isolation small intestines were isolated, flushed with cold PBS followed by 0.3% bleach and again PBS, opened longitudinally and the villi were removed. […] After severals vigourous shakings the crypts, released in the supernatant, were passed through a cell strainer 70 μm (BD Falcon), spun down at 800 rpm, resuspended in DMEM and counted. […]

intestinal crypts [4] = test: Organoid formation from isolated intestinal crypts upon MAMP stimulation; assay type: cell-based, mice; conditions: wt crypts; 10 μg/ml
Procedure: Crypts were stimulated with soluble sonicated peptidoglycan (PGN), muramyl-dipeptide (MDP), muramyl-tetrapeptide (Tetra-dap), Escherichia coli lipopolysaccharide (LPS) (each at 10 μg/ml), 10 ng/ml flagellin (Fla), 500 ng/ml synthetic lipoprotein (Pam3CSK), or 1 μM unmethylated CpG dinucleotides (CpG). The average number of non-stimulated organoids (control) is around 50, and the fold change value of the control is fixed to 1. The fold change upon the various MAMPs applied is thus by reference to non-stimulated organoids (Ctrl).
Intestinal crypts were obtained following a protocol already described (Sato et al., 2009). After isolation small intestines were isolated, flushed with cold PBS followed by 0.3% bleach and again PBS, opened longitudinally and the villi were removed. The tissues were cutted in small pieces, washed in 5 mM PBS/EDTA for 5 min, and subsequently incubated in fresh 5 mM PBS/EDTA for 30 min on ice. After severals vigourous shakings the crypts, released in the supernatant, were passed through a cell strainer 70 μm (BD Falcon), spun down at 800 rpm, resuspended in DMEM and counted. The volume corresponding to 500 crypts was distributed in two tubes per condition, and spun down again. […] The crypts were embedded in 50 μl of growth factor reduced matrigel (BD Biosciences) in a 24-well plates, incubate at 37° C. […]

[5] = system: wt stem cells (Lgr5-EGFP); test: Single cells stimulation: organoids from sorted wt stem cells; assay type: cell-based, mice; conditions: wt stem cells alone; 500 cells per well
Procedure: FIG. 8 depicts the average number of organoids formed per well, depending on the cell types seeded in the well, without stimulation, or under stimulation with MDP. 500 cells were seeded per well in a 96-wells-plate.
Isolated crypts from Lgr5-EGFP mice or Nod2KO mice were incubated in HBSS w/o Ca^+2 and Mg^2+ supplemented with 0.3 U/ml Dispase (BD Biosciences), 0.8 U/ml DNase (Sigma) and 10 μM Y-27632 (Sigma) for 30 min at 37° C.
Dissociated cells were washed with 1% PBS/BSA and stained with CD24-APC antibody (clone M1/69 BioLegend) and EpCam Pe-Cy7 (clone G8.8 BioLegend) for 20 min at 4° C., resuspended in crypts medium supplemented with 1 μM N-acetyl-L-cystein, 10 μM Jag-1 (Anaspec) and 10 μM Y-27632 (single cells medium-SCM) and filtered with a 20 μm mesh and analyzed with MoFlo legacy (Beckman Coulter).
Singlets of viable epithelial cells were gated by negative staining for propidium iodide and positive staining for EpCam. The stem cells and Paneth cells were isolated respectively as GFP^hi+ population, and GFP^−CD24^hi+SSC^hi population.
Stem cells and Paneth cells derived from Lgr5-EGFP or Nod2KO mice were cultured alone or in different combinations. 500 cells from each condition were re-suspended in 100 μl of single cells medium with or without MAMPs and, when indicated, with 100 ng/ml wnt3 (R&D), seeded in 96-wells round-bottom plates and incubated on ice for 15 min. […]

In the case of `COc1cccc2c1C(=O)c1c(O)c3c(c(O)c1C2=O)C[C@@](O)(C(=O)CO)C[C@@H]3O[C@H]1C[C@H](N)[C@H](O)[C@H](C)O1` [doxorubicin, doxorubicin hydrochloride], the “less organoids after treatment” value [1] is reported as 50%, the “percentage of crypts with apoptotic (caspase-3 positive) cells” value (intestinal crypts [2]; Nod2 KO mice) is reported as 54% and the “percentage of crypts with apoptotic (caspase-3 positive) cells” value (intestinal crypts [2]; wt mice) is reported as 30%. For the same molecule, the “Percentage of regenerative crypts” value (intestinal crypts [3]; Nod2 KO mice) was 33.9 ± 9.4 %, the “Relative size of crypts” value (intestinal crypts [3]; Nod2 KO mice) was 2538 ± 180 and the “proliferation index in crypts (in words)” value (intestinal crypts [3]; Nod2 KO mice, following days) was “low rate of proliferation”. The “proliferation index in crypts (in words)” value (intestinal crypts [3]; both wt and Nod2 KO mice, 6h until 24 h after injection) was “decrease in the rate of proliferation”, the “proliferation index in crypts (in words)” value (intestinal crypts [3]; wt mice, 48 h until 72 h) was “reaching almost the same rate observed in the non-treated mice” and the “Percentage of regenerative crypts” value (intestinal crypts [3]; wt mice) was 59.9 ± 6.4%. For the same molecule, the “Relative size of crypts” value (intestinal crypts [3]; wt mice) was 3231 ± 105.

`CC(=O)NC1C(O)OC(CO)C(O)C1OC(C)C(=O)NC(C)C(=O)NC(CCC(=O)O)C(N)=O` (stereo not shown) [MDP-ctrl] was tested, and the “number of organoids compared with control (in words)” value (crypts from Nod1 KO mice) was “No difference was observed”.

For `CC(=O)NC1C(O)OC(CO)C(O)C1OC(C)C(=O)NC(C)C(=O)NC(CCC(=O)NC(CCCC(N)C(=O)O)C(=O)NC(C)C(=O)O)C(=O)O` (stereo not shown) [Tetra-dap, MurNAc-Tetra(DAP)], the “number of organoids compared with non-stimulated (in words)” value (intestinal crypts [4]) was “did not observe any differences and not”.

B1: wnt ligand: 100 ng/ml wnt3 (R&D) added to stem cells (protein, UniProt P56703 22-355, looked up)
Proto-oncogene Wnt-3: GYPIWWSLALGQQYTSLGSQPLLCGSIPGLVPKQLRFCRNYIEIMPSVAEGVKLGIQECQHQFRGRRWNCTTIDDSLAIFGPVLDKATRESAFVHAIASAGVAFAVTRSCAEGTSTICGCDSHHKGPPGEGWKWGGCSEDADFGVLVSREFADARENRPDARSAMNKHNNEAGRTTILDHMHLKCKCHGLSGSCEVKTCWWAQPDFRAIGDFLKDKYDSASEMVVEKHRESRGWVETLRAKYSLFKPPTERDLVYYENSPNFCEPNPETGSFGTRDRTCNVTSHGIDGCDLLCCGRGHNTRTEKRKEKCHCIFHWCCYVSCQECIRIYDVHTCK
B1 was tested, and the “average of organoids per well” value [5] was “around 3 organoids per well”.
